Test results published in patent publication US9393271B2, “GHRH agonists for islet cell transplantation and function and the treatment of diabetes” (UNIVERSITY OF MIAMI, priority 2012, dated 2016).
Non-standard residues stand in square brackets, D forms with d. Residues, ends and D or L forms follow the SMILES beside them. *: point of attachment. Desaminotyrosyl = O=C(CCc1ccc(O)cc1)*; NMeY = CN[C@@H](Cc1ccc(O)cc1)C(=O)O; hArg = N=C(N)NCCCC[C@H](N)C(=O)O; Agmatine = N=C(N)NCCCCN*; Nle = CCCC[C@H](N)C(=O)O; Orn = NCCC[C@H](N)C(=O)O; Abu = CC[C@H](N)C(=O)O; Aoc = NCCCCCCCC(=O)O

Assays:
[1] = molecular target: T1, GHRH receptor (human pituitary membrane homogenates) (Homo sapiens, UniProt Q02643); experiment: GHRH receptor binding, ligand competition with 125I-labeled [His1,Nle27]hGHRH(1-32)NH2 (Table 6); conditions: for Relative affinitiy (Binding potency) vs GHRH: GHRH(1-29) = 1; for Relative affinitiy (Binding potency) vs JI-38: JI-38 = 1
T1 sequence (Q02643 23-423): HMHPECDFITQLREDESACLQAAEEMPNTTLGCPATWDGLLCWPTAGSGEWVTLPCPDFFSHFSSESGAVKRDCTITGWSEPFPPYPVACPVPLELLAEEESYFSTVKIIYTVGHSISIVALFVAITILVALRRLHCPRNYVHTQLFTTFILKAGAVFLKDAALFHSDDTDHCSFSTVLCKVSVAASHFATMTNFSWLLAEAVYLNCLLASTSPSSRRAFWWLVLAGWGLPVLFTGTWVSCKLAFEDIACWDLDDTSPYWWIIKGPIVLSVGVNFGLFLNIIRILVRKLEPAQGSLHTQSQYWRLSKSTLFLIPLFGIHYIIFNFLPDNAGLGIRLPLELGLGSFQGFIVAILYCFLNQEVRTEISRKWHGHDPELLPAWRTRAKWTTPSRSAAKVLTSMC

GH level = experiment: In vivo endocrine activity (GH release), subcutaneous administration; conditions: rat, s.c.
Experimental: Subcutaneous Administration. Adult male rats were used and anesthetized with pentobarbital (6 mg/100 g, b.w.), by i.p. injection. […] Blood samples were taken from the jugular vein 5, 15 and/or 30 minutes after the injection. The blood samples were centrifuged, plasma was removed and the GH level was measured by ELISA. The results are summarized in terms of potency in Table 9.

[2] = molecular target: T1, GHRH receptor (human pituitary membrane homogenates); experiment: GHRH receptor binding, ligand competition with 125I-labeled JV-1-42 (Table 7); design: Normal human pituitaries were purchased from the National Hormone and Peptide Program; tissue National Hormone and Peptide Program (A. F. Parlow, Harbor-UCLA Medical Center, Torrance, Calif.); host or cells: normal human pituitary, membrane fraction / homogenate; conditions: JI-38 = 1

SMILES | Relative affinitiy (Binding potency) vs GHRH [1] | Relative affinitiy (Binding potency) vs JI-38 [1] | Stimulation of growth hormone levels after s.c. administration (comparison in words) (GH level) | Relative affinitiy (Binding potency) vs JI-38 [2]
CCCC[C@H](NC(=O)[C@@H](NC(=O)[C@H](CC(=O)O)NC(=O)[C@H](CCC(N)=O)NC(=O)[C@H](CC(C)C)NC(=O)[C@H](CC(C)C)NC(=O)[C@H](CCCN)NC(=O)[C@H](CCCNC(=N)N)NC(=O)[C@H](C)NC(=O)[C@H](CO)NC(=O)[C@H](CC(C)C)NC(=O)[C@H](CCC(N)=O)NC(=O)[C@H](CC)NC(=O)[C@H](CC(C)C)NC(=O)[C@@H](NC(=O)[C@H](CCCN)NC(=O)[C@H](CCCNC(=N)N)NC(=O)[C@H](Cc1ccc(O)cc1)NC(=O)[C@H](CO)NC(=O)[C@H](CC(N)=O)NC(=O)[C@@H](NC(=O)[C@H](Cc1ccccc1)NC(=O)[C@@H](NC(=O)[C@H](C)NC(=O)[C@H](CC(=O)O)NC(=O)[C@H](C)NC(=O)CCc1ccc(O)cc1)[C@@H](C)CC)[C@@H](C)O)C(C)C)[C@@H](C)CC)C(=O)N[C@@H](CC(=O)O)C(=O)NCCCCNC(=N)N [JI-34, reference compound] (Desaminotyrosyl-ADAIFTNSYR[Orn]VL[Abu]QLSAR[Orn]LLQDI[Nle]D-Agmatine; N-terminus and C-terminus assumed) | 4.32 | – | – | –
CCCC[C@H](NC(=O)[C@@H](NC(=O)[C@H](CC(=O)O)NC(=O)[C@H](CCC(N)=O)NC(=O)[C@H](CC(C)C)NC(=O)[C@H](CC(C)C)NC(=O)[C@H](CCCN)NC(=O)[C@H](CCCNC(=N)N)NC(=O)[C@H](C)NC(=O)[C@H](CO)NC(=O)[C@H](CC(C)C)NC(=O)[C@H](CCC(N)=O)NC(=O)[C@H](CC)NC(=O)[C@H](CC(C)C)NC(=O)[C@@H](NC(=O)[C@H](CCCN)NC(=O)[C@H](CCCNC(=N)N)NC(=O)[C@H](Cc1ccc(O)cc1)NC(=O)[C@H](CO)NC(=O)[C@@H](NC(=O)[C@@H](NC(=O)[C@H](Cc1ccccc1)NC(=O)[C@@H](NC(=O)[C@H](C)NC(=O)[C@H](CC(=O)O)NC(=O)[C@H](C)NC(=O)CCc1ccc(O)cc1)[C@@H](C)CC)[C@@H](C)O)[C@@H](C)O)C(C)C)[C@@H](C)CC)C(=O)N[C@@H](CC(=O)O)C(=O)NCCCCNC(=N)N [JI-36, reference compound] (Desaminotyrosyl-ADAIFTTSYR[Orn]VL[Abu]QLSAR[Orn]LLQDI[Nle]D-Agmatine; N-terminus and C-terminus assumed) | 3.25 | – | – | –
CCCC[C@H](NC(=O)[C@@H](NC(=O)[C@H](CC(=O)O)NC(=O)[C@H](CCC(N)=O)NC(=O)[C@H](CC(C)C)NC(=O)[C@H](CC(C)C)NC(=O)[C@H](CCCN)NC(=O)[C@H](CCCNC(=N)N)NC(=O)[C@H](C)NC(=O)[C@H](CO)NC(=O)[C@H](CC(C)C)NC(=O)[C@H](CCC(N)=O)NC(=O)[C@H](CC)NC(=O)[C@H](CC(C)C)NC(=O)[C@@H](NC(=O)[C@H](CCCN)NC(=O)[C@H](CCCNC(=N)N)NC(=O)[C@H](Cc1ccc(O)cc1)NC(=O)[C@H](CO)NC(=O)[C@H](CCC(N)=O)NC(=O)[C@@H](NC(=O)[C@H](Cc1ccccc1)NC(=O)[C@@H](NC(=O)[C@H](C)NC(=O)[C@H](CC(=O)O)NC(=O)[C@@H](C)NC(=O)CCc1ccc(O)cc1)[C@@H](C)CC)[C@@H](C)O)C(C)C)[C@@H](C)CC)C(=O)N[C@@H](CC(=O)O)C(=O)N[C@@H](CCCNC(=N)N)C(=O)NCCCCCCCC(N)=O [Peptide P-21304, [Dat^1, D-Ala^2, Gln^8, Orn^12, Abu^15, Orn^21, Nle^27, Asp^28, Amc^30]hGHRH(1-30)NH2] (Desaminotyrosyl-[dA]DAIFTQSYR[Orn]VL[Abu]QLSAR[Orn]LLQDI[Nle]DR[Aoc]-NH2) | 74.0 | 24.4 | – | –
CCCC[C@H](NC(=O)[C@@H](NC(=O)[C@H](CC(=O)O)NC(=O)[C@H](CCC(N)=O)NC(=O)[C@H](CC(C)C)NC(=O)[C@H](CC(C)C)NC(=O)[C@H](CCCN)NC(=O)[C@H](CCCNC(=N)N)NC(=O)[C@H](C)NC(=O)[C@H](CO)NC(=O)[C@H](CC(C)C)NC(=O)[C@H](CCC(N)=O)NC(=O)[C@H](CC)NC(=O)[C@H](CC(C)C)NC(=O)[C@@H](NC(=O)[C@H](CCCN)NC(=O)[C@H](CCCNC(=N)N)NC(=O)[C@H](Cc1ccc(O)cc1)NC(=O)[C@H](CO)NC(=O)[C@H](CC(N)=O)NC(=O)[C@@H](NC(=O)[C@H](Cc1ccccc1)NC(=O)[C@@H](NC(=O)[C@H](C)NC(=O)[C@H](CC(=O)O)NC(=O)[C@@H](C)NC(=O)CCc1ccc(O)cc1)[C@@H](C)CC)[C@@H](C)O)C(C)C)[C@@H](C)CC)C(=O)N[C@@H](CC(=O)O)C(=O)N[C@@H](CCCNC(=N)N)C(=O)N[C@@H](CCCCNC(=N)N)C(N)=O [Peptide P-23252, [Dat^1-D-Ala^2, Orn^12, Abu^15, Orn^21, Nle^27, Asp^28, Har^30]hGHRH(1-30)NH2] (Desaminotyrosyl-[dA]DAIFTNSYR[Orn]VL[Abu]QLSAR[Orn]LLQDI[Nle]DR[hArg]-NH2) | 42.3 | 13.9 | – | –
CCCC[C@H](NC(=O)[C@@H](NC(=O)[C@H](CC(=O)O)NC(=O)[C@H](CCC(N)=O)NC(=O)[C@H](CC(C)C)NC(=O)[C@H](CC(C)C)NC(=O)[C@H](CCCN)NC(=O)[C@H](CCCNC(=N)N)NC(=O)[C@H](C)NC(=O)[C@H](CO)NC(=O)[C@H](CC(C)C)NC(=O)[C@H](CCC(N)=O)NC(=O)[C@H](CC)NC(=O)[C@H](CC(C)C)NC(=O)[C@@H](NC(=O)[C@H](CCCN)NC(=O)[C@H](CCCNC(=N)N)NC(=O)[C@H](Cc1ccc(O)cc1)NC(=O)[C@H](CO)NC(=O)[C@@H](NC(=O)[C@@H](NC(=O)[C@H](Cc1ccccc1)NC(=O)[C@@H](NC(=O)[C@H](C)NC(=O)[C@H](CC(=O)O)NC(=O)[C@@H](C)NC(=O)CCc1ccc(O)cc1)[C@@H](C)CC)[C@@H](C)O)[C@@H](C)O)C(C)C)[C@@H](C)CC)C(=O)N[C@@H](CC(=O)O)C(=O)N[C@@H](CCCNC(=N)N)C(=O)N[C@@H](CCCCNC(=N)N)C(N)=O [Peptide P-23254, [Dat^1, D-Ala^2, Thr^8, Orn^12, Abu^15, Orn^21, Nle^27, Asp^28, Har^30]hGHRH(1-30)NH2] (Desaminotyrosyl-[dA]DAIFTTSYR[Orn]VL[Abu]QLSAR[Orn]LLQDI[Nle]DR[hArg]-NH2) | 84.5 | 27.8 | – | –
CCCC[C@H](NC(=O)[C@@H](NC(=O)[C@H](CC(=O)O)NC(=O)[C@H](CCC(N)=O)NC(=O)[C@H](CC(C)C)NC(=O)[C@H](CC(C)C)NC(=O)[C@H](CCCN)NC(=O)[C@H](CCCNC(=N)N)NC(=O)[C@H](C)NC(=O)[C@H](CO)NC(=O)[C@H](CC(C)C)NC(=O)[C@H](CCC(N)=O)NC(=O)[C@H](CC)NC(=O)[C@H](CC(C)C)NC(=O)[C@@H](NC(=O)[C@H](CCCN)NC(=O)[C@H](CCCNC(=N)N)NC(=O)[C@H](Cc1ccc(O)cc1)NC(=O)[C@H](CO)NC(=O)[C@H](C)NC(=O)[C@@H](NC(=O)[C@H](Cc1ccccc1)NC(=O)[C@@H](NC(=O)[C@H](C)NC(=O)[C@H](CC(=O)O)NC(=O)[C@@H](C)NC(=O)CCc1ccc(O)cc1)[C@@H](C)CC)[C@@H](C)O)C(C)C)[C@@H](C)CC)C(=O)N[C@@H](CC(=O)O)C(=O)N[C@@H](CCCNC(=N)N)C(=O)N[C@@H](CCCCNC(=N)N)C(N)=O [Peptide P-23256, [Dat^1, D-Ala^2, Ala^8, Orn^12, Abu^15, Orn^21, Nle^27, Asp^28, Har^30]hGHRH(1-30)NH2] (Desaminotyrosyl-[dA]DAIFTASYR[Orn]VL[Abu]QLSAR[Orn]LLQDI[Nle]DR[hArg]-NH2) | 148.0 | 48.7 | – | –
CCCC[C@H](NC(=O)[C@@H](NC(=O)[C@H](CC(=O)O)NC(=O)[C@H](CCC(N)=O)NC(=O)[C@H](CC(C)C)NC(=O)[C@H](CC(C)C)NC(=O)[C@H](CCCN)NC(=O)[C@H](CCCNC(=N)N)NC(=O)[C@H](C)NC(=O)[C@H](CO)NC(=O)[C@H](CC(C)C)NC(=O)[C@H](CCC(N)=O)NC(=O)[C@H](CC)NC(=O)[C@H](CC(C)C)NC(=O)[C@@H](NC(=O)[C@H](CCCN)NC(=O)[C@H](CCCNC(=N)N)NC(=O)[C@H](Cc1ccc(O)cc1)NC(=O)[C@H](CO)NC(=O)[C@H](CC(N)=O)NC(=O)[C@@H](NC(=O)[C@H](Cc1ccccc1)NC(=O)[C@@H](NC(=O)[C@H](C)NC(=O)[C@H](CC(=O)O)NC(=O)[C@@H](C)NC(=O)[C@H](Cc1ccc(O)cc1)NC)[C@@H](C)CC)[C@@H](C)O)C(C)C)[C@@H](C)CC)C(=O)N[C@@H](CC(=O)O)C(=O)N[C@@H](CCCNC(=N)N)C(=O)NC [Peptide P-27409, [N—Me-Tyr^1, D-Ala^2, Orn^12, Abu^15, Orn^21, Nle^27, Asp^28]hGHRH(1-29)NH—CH3] (H-[NMeY][dA]DAIFTNSYR[Orn]VL[Abu]QLSAR[Orn]LLQDI[Nle]DR-NHMe) | – | – | stimulated greater growth hormone levels than hGHRH or JI-38 | 4.10
